Test results reported in patent US11759492B2, “Extract from a plant of the genus Boswellia and related products and uses” (Alpinia Laudanum Institute of Phytopharmaceutical Sciences …, priority 2014, dated 2023).

Tested on: HepG2 cells
Assay: Determination of reactive oxygen species (ROS) in HepG2 indicator cells (ROS-Glo system)
Assay type: cell-based
Details: two hours or four hours of incubation, FIG. 4 and 5
Method: The potential of Boswellia extract BSR037: LN00125 (Example 12) and Boswellia extract BSR037: LN00126 (Example 15) of inducing reactive oxygen species (ROS) was tested. The effects were compared with ROS generation upon exposure to positive control Menadione as well as two solvent ethanol. To this end, HepG2 cells were incubated in presence of different concentrations of the respective Boswellia extract for two hours. ROS levels were determined by using the ROS-Glo system (Promega). HepG2 cells were seeded in […] flat-bottom black microtiter plates at a density of 10000 cells per well, 100 μl per well, and allowed to attach to the plate for 24 hours. Test item dilutions were prepared in separate plates. The maximum concentration was a 1:100 dilution in media (final solvent concentration: 1% ethanol) followed by a 1:3 serial dilution in media containing 1% ethanol. […] Cells exposed to media containing 1% ethanol served as untreated control. After overnight adherence, media was completely removed from cells by vacuum aspiration and 80 μl of compound dilution, positive and negative controls were added to the cells. Test items were tested in two replicates per concentration (A and B). In independent experiments, ROS levels were measured after two hours of incubation (see FIG. 4A-D) or after four hours of incubation (see FIG. 5A-D), respectively).

CC1=CC(=O)c2ccccc2C1=O [Menadione]
ROS induction: ROS induction was detected
